Measurements taken from patent US8741897B2, “Glucocorticoid mimetics, methods of making them, pharmaceutical compositions and uses thereof” (Boehringer Ingelheim Pharmaceuticals Inc., priority 2003, dated 2014).

Key:
[1] = test system: glucocorticoid receptor function; test: one or more of the above assays (GR binding and glucocorticoid receptor cell assays: aromatase, IL-6, TAT, MMTV-Luc, IL-8, ICAM-Luc); assay type: cell-based; conditions: assay not specified per compound
[2] = test system: Human osteosarcoma MG-63 cells; test: Inhibition of osteocalcin production from osteoblast cell line MG-63; assay type: cell-based; conditions: Vitamin D 10 nM, 48 hours
Experimental: 7. Inhibition of Osteocalcin Production from Osteoblast Cell Line MG-63
The next day, wells are replaced with fresh media. Cells are treated with Vitamin D (Sigma, Cat. No. D1530) to a final concentration of 10 nM, and with the test compounds in concentrations of 10^−6 M to 10^−9 M, in a total volume of 200 μL per well. Samples are done in duplicates. […] Positive control wells receive Vitamin D only, without compounds, and represent maximum (100%) amount of osteocalcin production. Plates are incubated at 37° C. incubator for 48 hours and supernatants are harvested at the end of incubation. Amounts of osteocalcin in the supernatants are determined by the Glype osteocalcin ELISA kit (Zymed, Cat. No. 99-0054) according to manufacture's protocol. Inhibition of osteocalcin by test compounds is expressed in percentage relative to positive controls. IC50 values of the test compounds are derived by non-lineal curve fitting.

[3] = molecular target: T1, human glucocorticoid receptor (GR) complex (Homo sapiens, UniProt P04150); test: Glucocorticoid receptor competitive binding assay (fluorescence polarization, TAMRA-labeled dexamethasone probe); conditions: compounds of Formula (IA)
T1 construct: made in house; host or cells: insect expression system (baculovirus lysate)
T1 sequence (P04150 1-777): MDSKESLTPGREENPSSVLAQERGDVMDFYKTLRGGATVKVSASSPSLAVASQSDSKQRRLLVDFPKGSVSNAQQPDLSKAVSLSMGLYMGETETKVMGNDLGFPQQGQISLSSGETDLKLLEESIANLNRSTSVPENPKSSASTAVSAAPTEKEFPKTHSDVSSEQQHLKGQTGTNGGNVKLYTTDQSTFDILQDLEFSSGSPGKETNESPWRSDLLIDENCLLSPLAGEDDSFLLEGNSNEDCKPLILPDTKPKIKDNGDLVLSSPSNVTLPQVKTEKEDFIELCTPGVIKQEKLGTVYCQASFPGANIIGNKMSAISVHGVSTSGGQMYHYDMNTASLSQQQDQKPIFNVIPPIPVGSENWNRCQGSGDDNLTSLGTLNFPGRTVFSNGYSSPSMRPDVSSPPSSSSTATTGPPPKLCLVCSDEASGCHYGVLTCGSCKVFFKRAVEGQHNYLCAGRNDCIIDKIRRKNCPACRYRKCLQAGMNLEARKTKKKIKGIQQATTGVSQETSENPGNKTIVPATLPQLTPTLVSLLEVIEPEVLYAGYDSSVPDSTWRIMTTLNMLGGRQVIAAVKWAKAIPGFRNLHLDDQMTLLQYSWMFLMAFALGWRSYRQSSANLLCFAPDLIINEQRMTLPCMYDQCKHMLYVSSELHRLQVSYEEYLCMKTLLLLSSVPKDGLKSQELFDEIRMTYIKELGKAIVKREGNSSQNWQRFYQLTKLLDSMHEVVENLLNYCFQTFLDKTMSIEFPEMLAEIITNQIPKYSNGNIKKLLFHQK
How it was run: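 Fluorescence-polarization competition against 15 nM TAMRA-dexamethasone (stock added to the mix) for human GR complex from baculovirus lysate diluted 1:170. Buffer: 10 mM TES, 50 mM KCl, 20 mM Na2MoO4, 1.5 mM EDTA, 0.04% CHAPS, 10% glycerol, 1 mM DTT, pH 7.4. IC50 from 4-parameter logistic fit.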

Row | Structure (SMILES) | activity as agonists of the glucocorticoid receptor function in one or more of the above assays [1] | inhibit the vitamin D stimulated production of osteocalcin [2] | activity in the GR binding assay [3]
1 | Cc1ccc(F)cc1C(C)(C)CC(O)(Cc1cc2cc(-c3ccccc3)ncc2[nH]1)C(F)(F)F (centres unmarked) [1,1,1-Trifluoro-4-(5-fluoro-2-methylphenyl)-4-methyl-2-(5-phenyl-1H-pyrrolo[2,3-c]pyridin-2-ylmethyl)pentan-2-ol] | potent agonists | inhibit | –
2 | CC(C)(CC(O)(Cc1cc2cc(C(N)=O)ccc2[nH]1)C(F)(F)F)c1cc(Br)cc2c1OCC2 (centres unmarked) [2-[4-(5-Bromo-2,3-dihydrobenzofuran-7-yl)-2-hydroxy-4-methyl-2-trifluoromethylpentyl]-1H-indole-5-carboxylic acid amide] | potent agonists | inhibit | potent activity
3 | CC(C)(CC(O)(Cc1cc2cc(O)ncc2[nH]1)C(F)(F)F)c1cc(-c2ccccc2)ccc1O (centres unmarked) [2-[2-Hydroxy-4-(4-hydroxybiphenyl-3-yl)-4-methyl-2-trifluoromethylpentyl]-1H-pyrrolo[2,3-c]pyridin-5-ol] | potent agonists | inhibit | –
4 | Cc1c(CC(O)(CC(C)(C)c2cc(-c3cncnc3)cc3c2OCC3)C(F)(F)F)[nH]c2cnccc12 (centres unmarked) [1,1,1-Trifluoro-4-methyl-2-(3-methyl-1H-pyrrolo[2,3-c]pyridin-2-ylmethyl)-4-(5-pyrimidin-5-yl-2,3-dihydrobenzofuran-7-yl)pentan-2-ol] | potent agonists | inhibit | –
5 | CC(C)(CC(O)(Cc1cc2cc(-c3ccccc3)ncc2[nH]1)C(F)(F)F)c1cc(Cl)cc2c1OCC2 (centres unmarked) [4-(5-Chloro-2,3-dihydrobenzofuran-7-yl)-1,1,1-trifluoro-4-methyl-2-(5-phenyl-1H-pyrrolo[2,3-c]pyridin-2-ylmethyl)pentan-2-ol] | potent agonists | inhibit | –
6 | Cc1cc(C#N)cc2[nH]c(CC(O)(CC(C)(C)c3cc(S(C)(=O)=O)cc4c3OCC4)C(F)(F)F)cc12 (centres unmarked) [2-[2-Hydroxy-4-(5-methanesulfonyl-2,3-dihydrobenzofuran-7-yl)-4-methyl-2-trifluoromethylpentyl]-4-methyl-1H-indole-6-carbonitrile] | potent agonists | inhibit | potent activity
7 | Cc1ccc(F)cc1C(C)(C)CC(O)(Cc1cc2cnncc2[nH]1)C(F)(F)F (centres unmarked) [1,1,1-Trifluoro-4-(5-fluoro-2-methylphenyl)-4-methyl-2-(1H-pyrrolo[2,3-d]pyridazin-2-ylmethyl)pentan-2-ol] | potent agonists | inhibit | potent activity
8 | COc1ccc(-c2cccnc2)cc1C(C)(C)CC(O)(Cc1cc2cc(N3CCCCC3)ncc2[nH]1)C(F)(F)F (centres unmarked) [1,1,1-Trifluoro-4-(2-methoxy-5-pyridin-3-ylphenyl)-4-methyl-2-(5-piperidin-1-yl-1H-pyrrolo[2,3-c]pyridin-2-ylmethyl)pentan-2-ol] | potent agonists | inhibit | –
9 | CC(C)(CC(O)(Cc1cc2cc(C(=O)N3CCCC3)ccc2[nH]1)C(F)(F)F)c1cc(Br)cc2c1OCC2 (centres unmarked) [{2-[4-(5-Bromo-2,3-dihydrobenzofuran-7-yl)-2-hydroxy-4-methyl-2-trifluoromethylpentyl]-1H-indol-5-yl}pyrrolidin-1-ylmethanone] | potent agonists | inhibit | potent activity
10 | CCN(C)c1cc2cc(CC(O)(CC(C)(C)c3cc(F)ccc3C)C(F)(F)F)[nH]c2cn1 (centres unmarked) [2-[5-(Ethylmethylamino)-1H-pyrrolo[2,3-c]pyridin-2-ylmethyl]-1,1,1-trifluoro-4-(5-fluoro-2-methylphenyl)-4-methylpentan-2-ol] | potent agonists | inhibit | –
11 | CC(C)(CC(O)(Cc1cc2cc(N3CCOCC3)ncc2[nH]1)C(F)(F)F)c1cccc(Br)c1 (centres unmarked) [4-(3-Bromophenyl)-1,1,1-trifluoro-4-methyl-2-(5-morpholin-4-yl-1H-pyrrolo[2,3-c]pyridin-2-ylmethyl)pentan-2-ol] | potent agonists | inhibit | –
12 | CN(C)c1cc2cc(CC(O)(CC(C)(C)c3cc(F)ccc3O)C(F)(F)F)[nH]c2cn1 (centres unmarked) [2-[3-(5-Dimethylamino-1H-pyrrolo[2,3-c]pyridin-2-ylmethyl)-4,4,4-trifluoro-3-hydroxy-1,1-dimethylbutyl]-4-fluorophenol] | potent agonists | inhibit | –
13 | Cc1nccc2[nH]c(CC(O)(CC(C)(C)c3cc(Cl)cc4c3OCC4)C(F)(F)F)cc12 (centres unmarked) [4-(5-Chloro-2,3-dihydrobenzofuran-7-yl)-1,1,1-trifluoro-4-methyl-2-(4-methyl-1H-pyrrolo[3,2-c]pyridin-2-ylmethyl)pentan-2-ol] | potent agonists | inhibit | –
14 | CC(C)(CC(O)(Cc1cc2cnccc2[nH]1)C(F)(F)F)c1cccc(Cl)c1 (centres unmarked) [4-(3-Chlorophenyl)-1,1,1-trifluoro-4-methyl-2-(1H-pyrrolo[3,2-c]pyridin-2-ylmethyl)pentan-2-ol] | potent agonists | inhibit | –
15 | CC(C)(CC(O)(Cc1cc2cc(-c3cccnc3)ccc2[nH]1)C(F)(F)F)c1cc(F)cc2c1OCC2 (centres unmarked) | – | inhibit | –
16 | COc1ccc(-c2cncnc2)cc1C(C)(C)CC(O)(Cc1cc2cc(N3CCCCC3)ncc2[nH]1)C(F)(F)F (centres unmarked) [1,1,1-Trifluoro-4-(2-methoxy-5-pyrimidin-5-ylphenyl)-4-methyl-2-(5-piperidin-1-yl-1H-pyrrolo[2,3-c]pyridin-2-ylmethyl)pentan-2-ol] | potent agonists | inhibit | –
17 | CCN(C)c1cc2cc(CC(O)(CC(C)(C)c3cc(Cl)cc4c3OCC4)C(F)(F)F)[nH]c2cn1 (centres unmarked) [4-(5-Chloro-2,3-dihydrobenzofuran-7-yl)-2-[5-(ethylmethylamino)-1H-pyrrolo[2,3-c]pyridin-2-ylmethyl]-1,1,1-trifluoro-4-methylpentan-2-ol] | potent agonists | inhibit | –
18 | CC(C)(CC(O)(Cc1cc2cc(N3CCCCC3)ncc2[nH]1)C(F)(F)F)c1cc(S(C)(=O)=O)cc2c1OCC2 (centres unmarked) [1,1,1-Trifluoro-4-(5-methanesulfonyl-2,3-dihydrobenzofuran-7-yl)-4-methyl-2-(5-piperidin-1-yl-1H-pyrrolo[2,3-c]pyridin-2-ylmethyl)pentan-2-ol] | potent agonists | inhibit | –
19 | COc1ccc(F)cc1C(C)(C)CC(O)(Cc1cc2cc(-c3ccccc3)ncc2[nH]1)C(F)(F)F (centres unmarked) [1,1,1-Trifluoro-4-(5-fluoro-2-methoxyphenyl)-4-methyl-2-(5-phenyl-1H-pyrrolo[2,3-c]pyridin-2-ylmethyl)pentan-2-ol] | potent agonists | inhibit | –
